Measurements from patent publication US20060008858A1, “Osteoblast factor(s) that regulates human prostate cancer migration to and invasion of bone” (The Regents of the University of Michigan, priority 2004, published 2006).

System: LNCaP-C4-2B and VCaP human CaP cells
Assay: Chemotaxtic migration assay (cell culture inserts)
Format: cell-based
Details: osteoblast-secreted proteins evaluated in migration assays; FIG. 2
Description: Conditioned medium from human primary pre-osteoblast cells was prepared by plating 5×10^5 cells in 10 ml culture medium (10% FBS DMEM medium) to 100 mm tissue culture dishes. Following 24 hrs to allow for adherence, the medium was removed and the cells washed three times with 10 ml/dish PBS. Washed cells were then incubated 72 hrs in 10 ml/dish serum-free DMEM medium supplemented with 1% (v/v) ITS+(Becton Dickenson, Bedford. Mass.) Medium collected after 72 hrs was filtered through 0.2 μm filter and used directly in in vitro invasion and migration assays with human prostate cancer cells.
Chemotaxtic migration assays were performed as described with modifications (Jeffers et al., 1996). Briefly, cells were harvested with trypsin, washed once with serum-free medium, and resuspended in serum-free DMEM medium to a concentration of 5×10^4 viable cells/ml. 25,000 cells/0.5 ml were then added to 24-well cell culture inserts with a […] pore size (Becton Dickinson, Bedford, Mass.). The inserts were placed in wells containing 0.5 ml of serum-free DMEM, 72 hr serum-free conditioned medium from human primary osteoblasts and incubated for 48 hrs in 5% CO2-95% air at 37° C. […] The total number of invading cells/filter was quantified under 10× magnification. […]

Substance | effect on CaP cell migration
basic Fibroblast Growth Factor: osteoblast-secreted protein, basic fibroblast growth factor | stimulatory
IL-6: osteoblast-secreted protein, interleukin 6 | stimulatory
